# Target: human ACC2 (Homo sapiens (Human), UniProt O00763)
# Assay: ACC2 assay (spectrophotometric 384 well assay, NADH-linked kinetic method)
# Assay type: biochemical
# Conditions: hACC2 construct lacking 128 N-terminal amino acids, 25° C., 340 nm
# Method: Spectrophotometric 384 Well Assay
# Malonyl CoA formation by acetyl CoA carboxylases is stoichometrically linked to the consumption of ATP. ACC2 activity is measured in a NADH-linked kinetic method measuring ADP generated during the ACC reaction using a coupled lactate dehydrogenase/pyruvate kinase reaction.
# The protein is then expressed in insect cells using a baculoviral expression system. Protein purification is performed by anion exchange.
# All compounds are dissolved in dimethyl sulfoxide (DMSO) to a concentration of 10 mM.
# The enzymatic reaction is then started by addition of a mixture of NADH, acetyl Coenzyme A (both 200 μM f.c.) and ATP (500 uM f.c.). The decrease of the optical density (slope S) is then determined at 25° C. at a wavelength of 340 nm over 15 minutes in a spectrophotometric reader.
# Each assay microtiter plate contains wells with vehicle instead of compound as controls for the non-inhibited enzyme (100% CTL; ‘HIGH’) and wells without acetyl-CoA as controls for non-specific NADH degradation (0% CTL; ‘LOW’).
# Chain of human ACC2 (O00763 129-2458): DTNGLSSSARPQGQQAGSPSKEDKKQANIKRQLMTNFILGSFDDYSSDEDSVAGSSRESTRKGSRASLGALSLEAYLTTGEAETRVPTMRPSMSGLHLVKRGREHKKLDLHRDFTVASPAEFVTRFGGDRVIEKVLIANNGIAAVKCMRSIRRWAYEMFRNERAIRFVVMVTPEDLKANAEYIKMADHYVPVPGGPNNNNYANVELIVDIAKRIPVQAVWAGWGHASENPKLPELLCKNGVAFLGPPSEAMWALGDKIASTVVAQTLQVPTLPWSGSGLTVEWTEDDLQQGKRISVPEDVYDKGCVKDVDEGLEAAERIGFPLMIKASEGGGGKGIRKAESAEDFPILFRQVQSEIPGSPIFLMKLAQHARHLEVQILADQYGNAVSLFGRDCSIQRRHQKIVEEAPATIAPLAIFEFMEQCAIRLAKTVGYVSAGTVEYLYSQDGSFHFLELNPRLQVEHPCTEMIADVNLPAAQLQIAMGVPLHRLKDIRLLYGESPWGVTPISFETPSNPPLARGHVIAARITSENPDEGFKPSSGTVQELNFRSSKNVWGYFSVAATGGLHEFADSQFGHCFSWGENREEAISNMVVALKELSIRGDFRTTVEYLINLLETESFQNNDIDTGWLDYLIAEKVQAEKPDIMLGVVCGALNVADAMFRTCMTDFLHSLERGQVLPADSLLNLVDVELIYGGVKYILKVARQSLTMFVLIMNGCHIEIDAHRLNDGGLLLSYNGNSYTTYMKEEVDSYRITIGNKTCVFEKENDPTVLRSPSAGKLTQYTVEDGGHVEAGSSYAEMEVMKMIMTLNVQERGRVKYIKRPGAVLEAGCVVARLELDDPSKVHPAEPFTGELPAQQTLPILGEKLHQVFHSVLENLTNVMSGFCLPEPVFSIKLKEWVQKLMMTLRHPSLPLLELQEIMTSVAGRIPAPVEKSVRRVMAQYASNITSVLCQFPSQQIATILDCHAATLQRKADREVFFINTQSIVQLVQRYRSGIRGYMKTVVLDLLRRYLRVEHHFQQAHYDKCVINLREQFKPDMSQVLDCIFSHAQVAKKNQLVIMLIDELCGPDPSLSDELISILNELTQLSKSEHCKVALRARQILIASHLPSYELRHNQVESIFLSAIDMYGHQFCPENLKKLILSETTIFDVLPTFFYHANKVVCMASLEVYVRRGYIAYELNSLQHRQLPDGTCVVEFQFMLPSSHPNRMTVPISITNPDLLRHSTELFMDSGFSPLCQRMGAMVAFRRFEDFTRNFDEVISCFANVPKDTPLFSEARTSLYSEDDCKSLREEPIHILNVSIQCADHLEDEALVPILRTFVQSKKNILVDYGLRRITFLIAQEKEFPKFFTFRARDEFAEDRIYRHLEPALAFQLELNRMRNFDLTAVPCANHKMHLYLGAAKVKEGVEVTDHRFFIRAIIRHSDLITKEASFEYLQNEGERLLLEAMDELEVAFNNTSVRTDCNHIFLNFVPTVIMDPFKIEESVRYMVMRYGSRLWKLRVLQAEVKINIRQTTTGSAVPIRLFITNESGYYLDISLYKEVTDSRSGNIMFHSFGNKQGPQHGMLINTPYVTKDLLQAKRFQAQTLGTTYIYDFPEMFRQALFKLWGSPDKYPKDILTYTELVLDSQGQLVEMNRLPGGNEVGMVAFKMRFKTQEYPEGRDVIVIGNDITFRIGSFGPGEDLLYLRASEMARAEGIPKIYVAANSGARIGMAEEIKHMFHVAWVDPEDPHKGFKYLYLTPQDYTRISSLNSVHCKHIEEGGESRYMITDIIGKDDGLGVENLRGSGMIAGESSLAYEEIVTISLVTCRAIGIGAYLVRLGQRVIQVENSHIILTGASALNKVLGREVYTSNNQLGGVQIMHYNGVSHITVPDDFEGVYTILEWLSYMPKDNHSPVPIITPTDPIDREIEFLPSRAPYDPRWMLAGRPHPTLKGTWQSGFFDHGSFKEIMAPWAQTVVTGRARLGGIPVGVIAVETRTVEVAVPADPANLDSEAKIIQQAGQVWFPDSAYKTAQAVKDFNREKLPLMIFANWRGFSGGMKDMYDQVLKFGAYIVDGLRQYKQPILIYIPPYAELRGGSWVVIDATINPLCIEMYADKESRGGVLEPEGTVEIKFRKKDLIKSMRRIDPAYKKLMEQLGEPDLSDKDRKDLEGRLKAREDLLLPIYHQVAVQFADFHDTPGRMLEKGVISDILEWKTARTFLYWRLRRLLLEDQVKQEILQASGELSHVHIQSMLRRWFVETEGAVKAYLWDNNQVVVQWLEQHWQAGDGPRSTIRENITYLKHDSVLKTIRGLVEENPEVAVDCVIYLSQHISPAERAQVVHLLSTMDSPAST
row,Structure (SMILES),IC50 [nM]
1,"CC(=O)N[C@@H](C)c1ccc(O[C@@H]2CCN(c3ccc(OCC4CC4)cc3)C2)cc1 [Example 1.1, N—((S)-1-(4-((R)-1-(4-(Cyclopropylmethoxy)phenyl)pyrrolidin-3-yloxy)phenyl)ethyl)-acetamide]",54
2,CCOc1ccc(N2CCC(Oc3ccc([C@H](C)NC(C)=O)cc3)C2)cc1 (some centres unmarked) [Example 1.2],198
3,CCOc1ccc(N2CC[C@H](Oc3ccc([C@H](C)NC(C)=O)cc3)C2)cc1 [Example 1.3],263
4,CCOc1cccc(N2CC[C@H](Oc3ccc([C@H](C)NC(C)=O)cc3)C2)c1 [Example 1.4],514
5,CCOc1cccc(N2CC[C@@H](Oc3ccc([C@H](C)NC(C)=O)cc3)C2)c1 [Example 1.5],204
6,CC(=O)N[C@@H](C)c1ccc(OC2CCN(c3ccc(OC4CC4)cc3)C2)cc1 (some centres unmarked) [Example 1.6],108
7,CC(=O)N[C@@H](C)c1ccc(OC2CCN(c3ccc4c(c3)OCCO4)C2)cc1 (some centres unmarked) [Example 1.7],229
8,CCCOc1ccc(N2CCC(Oc3ccc([C@H](C)NC(C)=O)cc3)C2)cc1 (some centres unmarked) [Example 1.8],140
9,CCCOc1ccc(N2CCC(Oc3ccc([C@H](C)NC(C)=O)cc3)C2)c(OC)c1 (some centres unmarked) [Example 1.9],1150
10,CC(=O)N[C@@H](C)c1ccc(OC2CCN(c3ccc(OCC4CC4)cc3F)C2)cc1 (some centres unmarked) [Example 1.10],230
11,CC(=O)N[C@@H](C)c1ccc(O[C@@H]2CCN(c3cccc(OCC4CC4)c3)C2)cc1 [Example 1.11],226
12,CC(=O)N[C@@H](C)c1ccc(OC2CCN(c3ccc(Cl)cc3)C2)cc1 (some centres unmarked) [Example 1.12],899
13,CCCOc1ccc(N2CCC(Oc3ccc([C@H](C)NC(C)=O)cc3)C2)c(C#N)c1 (some centres unmarked) [Example 1.13],155
14,CC(=O)N[C@@H](C)c1ccc(OC2CCN(c3ccc(OC4CCC4)cc3)C2)cc1 (some centres unmarked) [Example 1.14],36
15,CC(=O)N[C@@H](C)c1ccc(OC2CCN(c3ccc(OC(C)C)cc3)C2)cc1 (some centres unmarked) [Example 1.15],214
16,CC(=O)N[C@@H](C)c1ccc(OC2CCN(c3ccc(OCC4CC4(F)F)cc3)C2)cc1 (some centres unmarked) [Example 1.16],25
17,CC(=O)N[C@@H](C)c1ccc(OC2CCN(c3ccc(OCC4CCOC4)cc3)C2)cc1 (some centres unmarked) [Example 1.17],894
18,CC(=O)N[C@@H](C)c1ccc(OC2CCN(c3ccc4c(c3)OCC(C)(C)CO4)C2)cc1 (some centres unmarked) [Example 1.18],214
19,CCOc1ccc(N2CCC(Oc3ccc([C@H](C)NC(C)=O)cc3)C2)c(F)c1 (some centres unmarked) [Example 1.19],240
20,CC(=O)N[C@@H](C)c1ccc(OC2CCN(c3cccc4c3OCCO4)C2)cc1 (some centres unmarked) [Example 1.20],2960
21,CC(=O)N[C@@H](C)c1ccc(OC2CCN(c3ccc(OCC4CCCO4)cc3)C2)cc1 (some centres unmarked) [Example 1.21],573
22,COc1ccc(N2CCC(Oc3ccc([C@H](C)NC(C)=O)cc3)C2)c(F)c1 (some centres unmarked) [Example 1.22],559
23,CC(=O)N[C@@H](C)c1ccc(OC2CCN(c3ccc4c(c3)OCCCO4)C2)cc1 (some centres unmarked) [Example 1.23],84
24,COc1ccc(N2CCC(Oc3ccc([C@H](C)NC(C)=O)cc3)C2)cc1 (some centres unmarked) [Example 1.24],589
25,CC(=O)N[C@@H](C)c1ccc(OC2CCN(c3ccc(OC4CC4)cc3C)C2)cc1 (some centres unmarked) [Example 1.25],86

row,Structure (SMILES),IC50 [nM]
1,CC(=O)N[C@@H](C)c1ccc(OC2CCN(c3ccc4c(c3)CCO4)C2)cc1 (some centres unmarked) [Example 1.26],397
2,CC(=O)N[C@@H](C)c1ccc(OC2CCN(c3cccc(C(F)(F)F)c3)C2)cc1 (some centres unmarked) [Example 1.27],110
3,CC(=O)N[C@@H](C)c1ccc(OC2CCN(c3ccc(F)c(F)c3)C2)cc1 (some centres unmarked) [Example 1.28],672
4,CCCOc1ccc(N2CCC(Oc3ccc([C@H](C)NC(C)=O)cc3)C2)c(Cl)c1 (some centres unmarked) [Example 1.29],60
5,CC(=O)N[C@@H](C)c1ccc(OC2CCN(c3cc(C(F)(F)F)ccc3C)C2)cc1 (some centres unmarked) [Example 1.30],174
6,CC(=O)N[C@@H](C)c1ccc(OC2CCN(c3cccc(F)c3C)C2)cc1 (some centres unmarked) [Example 1.31],913
7,COc1ccc(N2CCC(Oc3ccc([C@H](C)NC(C)=O)cc3)C2)cc1C(F)(F)F (some centres unmarked) [Example 1.32],538
8,CC(=O)N[C@@H](C)c1ccc(OC2CCN(c3ccc(C4CCC4)cc3)C2)cc1 (some centres unmarked) [Example 1.33],125
9,CC(=O)N[C@@H](C)c1ccc(OC2CCN(c3ccc(F)c(C(F)(F)F)c3)C2)cc1 (some centres unmarked) [Example 1.34],224
10,CC(=O)N[C@@H](C)c1ccc(OC2CCN(c3ccc(F)cc3F)C2)cc1 (some centres unmarked) [Example 1.35],899
11,CC(=O)N[C@@H](C)c1ccc(OC2CCN(c3cc4c(cc3F)OCCCO4)C2)cc1 (some centres unmarked) [Example 1.36],97
12,COCCCOc1ccc(N2CCC(Oc3ccc([C@H](C)NC(C)=O)cc3)C2)c(F)c1 (some centres unmarked) [Example 1.37],484
13,COCCOc1ccc(N2CCC(Oc3ccc([C@H](C)NC(C)=O)cc3)C2)c(F)c1 (some centres unmarked) [Example 1.38],685
14,CC(=O)N[C@@H](C)c1ccc(OC2CCN(c3ccc(C)cc3F)C2)cc1 (some centres unmarked) [Example 1.39],791
15,CC(=O)N[C@@H](C)c1ccc(OC2CCN(c3ccc(OC4CC4)cc3F)C2)cc1 (some centres unmarked) [Example 1.40],147
16,CC(=O)N[C@@H](C)c1ccc(OC2CCN(c3ccc(OCC4CC4(F)F)cc3F)C2)cc1 (some centres unmarked) [Example 1.41],45
17,CC(=O)N[C@@H](C)c1ccc(OC2CCN(c3ccc(OC4CCOC4)cc3F)C2)cc1 (some centres unmarked) [Example 1.42],589
18,COc1cc(OC2CC2)ccc1N1CCC(Oc2ccc([C@H](C)NC(C)=O)cc2)C1 (some centres unmarked) [Example 1.43],274
19,CC(=O)N[C@@H](C)c1ccc(OC2CCN(c3ccccc3)C2)cc1 (some centres unmarked) [Example 1.44],435
20,CO[C@H]1CN(c2ccc(OCC3CC3)cc2)CC1Oc1ccc([C@H](C)NC(C)=O)cc1 (some centres unmarked) [Example 1.45],108
21,CC(=O)N[C@@H](C)c1ccc(OC2CCN(c3cc4c(cc3F)OCCO4)C2)cc1 (some centres unmarked) [Example 1.46],226
22,CC(=O)N[C@@H](C)c1ccc(OC2CCN(c3ccc4c(c3F)OCCO4)C2)cc1 (some centres unmarked) [Example 1.47],339
23,CC(=O)N[C@@H](C)c1ccc(O[C@H]2CCN(c3ccc(OCC4CC4)cc3)C2)cc1 [Example 1.48],180
24,CC(=O)N[C@@H](C)c1ccc(O[C@H]2CCN(c3ccc(OC4CC4)cc3)C2)cc1 [Example 1.49],775
25,CO[C@@H]1CN(c2ccc(OCC3CC3)cc2)CC1Oc1ccc([C@H](C)NC(C)=O)cc1 (some centres unmarked) [Example 1.51],175

row,Structure (SMILES),IC50 [nM]
1,CC(=O)N[C@@H](C)c1ccc(OC2CCN(c3ccc(C)c(Cl)c3)C2)cc1 (some centres unmarked) [Example 1.52],599
2,CC(=O)N[C@@H](C)c1ccc(OC2CCN(c3cccc(Cl)c3)C2)cc1 (some centres unmarked) [Example 1.53],204
3,CC(=O)N[C@@H](C)c1ccc(OC2CCN(c3ccc(F)c(Cl)c3)C2)cc1 (some centres unmarked) [Example 1.54],300
4,CC(=O)N[C@@H](C)c1ccc(OC2CCN(c3cccc(C)c3)C2)cc1 (some centres unmarked) [Example 1.55],214
5,CC(=O)NC(C)c1ccc(OC2CCN(c3ccc(OCC4CC4)cc3)C2)nc1 (centres unmarked) [Example 1.56],298
6,COc1cc(OCC2CC2(F)F)ccc1N1CCC(Oc2ccc([C@H](C)NC(C)=O)cc2)C1 (some centres unmarked) [Example 1.57],443
7,CC(=O)N[C@@H](C)c1ccc(OC2CCN(c3cc(Cl)ccc3Cl)C2)cc1 (some centres unmarked) [Example 1.58],354
8,CC(=O)N[C@@H](C)c1ccc(OC2CCN(c3cc(Cl)ccc3C)C2)cc1 (some centres unmarked) [Example 1.60],415
9,CC(=O)N[C@@H](C)c1ccc(OC2CCN(c3cccc(OC(F)(F)F)c3)C2)cc1 (some centres unmarked) [Example 1.61],845
10,CCOc1ccc(N2CCC(Oc3ccc([C@H](C)NC(C)=O)cc3)C2)c(F)c1F (some centres unmarked) [Example 1.62],335
11,C[C@H](NC(=O)N(C)C)c1ccc(OC2CCN(c3ccc(OC4CC4)cc3)C2)cc1 (some centres unmarked) [Example 1.64],108
12,CC(C)Oc1ccc(N2CCC(Oc3ccc([C@H](C)NC(=O)N(C)C)cc3)C2)cc1 (some centres unmarked) [Example 1.65],875
13,CC(=O)N[C@@H](C)c1ccc(OC2CCN(c3ccc(Oc4ccncc4)cc3)C2)cc1 (some centres unmarked) [Example 1.66],791
14,Cc1cc(OC2CC2)ccc1N1CCC(Oc2ccc([C@H](C)NC(=O)N(C)C)cc2)C1 (some centres unmarked) [Example 1.68],566
15,CC(=O)N[C@@H](C)c1ccc(OC2CCN(c3ccc(Oc4cnccn4)cc3)C2)cc1 (some centres unmarked) [Example 1.69],440
16,CC(=O)N[C@@H](C)c1ccc(OC2CCN(c3ccc(OCCCF)cc3)C2)cc1 (some centres unmarked) [Example 1.70],53
17,CC(=O)N[C@@H](C)c1ccc(OC2CCN(c3ccc(OC4CCOC4)cc3)C2)cc1 (some centres unmarked) [Example 1.71],272
18,CC(=O)N[C@@H](C)c1ccc(OC2CCN(c3ccc4c(c3F)OCO4)C2)cc1 (some centres unmarked) [Example 1.72],558
19,CC(=O)N[C@@H](C)c1ccc(OC2CCN(c3ccc(OC4CC4)cc3C#N)C2)cc1 (some centres unmarked) [Example 1.73],230
20,CCOC1CN(c2ccc(OCC3CC3)cc2)CC1Oc1ccc([C@H](C)NC(C)=O)cc1 (some centres unmarked) [Example 1.74],1680
21,CC(=O)N[C@@H](C)c1ccc(OC2CCN(c3ccc4c(c3)COC4)C2)cc1 (some centres unmarked) [Example 1.75],709
22,COCCOC1CN(c2ccc(OCC3CC3)cc2)CC1Oc1ccc([C@H](C)NC(C)=O)cc1 (some centres unmarked) [Example 1.77],749
23,CC(=O)N[C@@H](C)c1ccc(OC2CCN(c3ccc(OCC(F)(F)F)cc3)C2)cc1 (some centres unmarked) [Example 1.78],546
24,CC(=O)N[C@@H](C)c1ccc(OC2CCN(c3ccc(OC(F)F)cc3)C2)cc1 (some centres unmarked) [Example 1.79],496

# — patent US9169205B2, “Pyrrolidine derivatives, pharmaceutical compositions and uses thereof” (Boehringer Ingelheim International GmbH, priority 2012, dated 2015)
